Data: ChEMBL document CHEMBL4392887, “17- nor-Cephalotane-Type Diterpenoids from Cephalotaxus fortunei” (J Nat Prod, 2019)
Counter-ions that a name gives are not always drawn. Calls of active or inactive are those of the source. The calls are words filed in the database; no cut-off is given here.

Assays:
A549 [1] = assay: Cytotoxicity in human A549 cells assessed as inhibition of cell viability incubated for 72 hrs by CCK-8 assay; type: functional, cell-based; conditions: for IC50: A549, 72 h
HL-60 [2] = assay: Cytotoxicity in human HL60 cells assessed as inhibition of cell viability incubated for 72 hrs by CCK-8 assay; type: functional, cell-based; conditions: for IC50: HL-60, 72 h
A549 [3] = assay: Cytotoxicity in human A549 cells assessed as inhibition of cell viability at 50 uM incubated for 72 hrs by CCK-8 assay; type: functional; conditions: A549, 72 h
HL-60 [4] = assay: Cytotoxicity in human HL60 cells assessed as inhibition of cell viability at 50 uM incubated for 72 hrs by CCK-8 assay; type: functional; conditions: HL-60, 72 h

SMILES | IC50 (A549 [1]) [µM] | IC50 (HL-60 [2]) [µM] | inhibition at 50 µM (A549 [3]) [%] | inhibition at 50 µM (HL-60 [4]) [%] | further results
Cc1cc(=O)cc2c3c1[C@@H](O)[C@@H]1[C@H]4CC(C)[C@@](C=C2)(C(=O)O4)[C@]31O (stereo not given in full) |  |  |  |  | inhibition (A549 [1]): inactive; inhibition (HL-60 [2]): inactive
Cc1cc(=O)cc2c3c1C[C@H]1[C@@H]3[C@]3(C=C2)C(=O)O[C@@H]1CC3C (stereo not given in full) | 1 | 9.8 |  |  | 
CC1C[C@H]2OC(=O)[C@]13CC[C@@H]1CC(=O)C[C@H](C)C4=C1[C@]3(O)[C@@H]2C4=O (stereo not given in full) |  |  | < 50 | < 50 | 
CO[C@@]12c3c4cc(=O)cc(C)c3C[C@@H]1[C@H]1CC(C)[C@@]2(CC4)C(=O)O1 (stereo not given in full) |  |  |  |  | inhibition (A549 [1]): inactive; inhibition (HL-60 [2]): inactive
Cc1cc(=O)cc2c3c1[C@H](O)[C@@H]1[C@@H]4OC(=O)[C@](CC2)(C(C)C4O)[C@H]31 (stereo not given in full) | 2.4 | 2.2 |  |  | 
CC1C[C@H]2OC(=O)[C@]13CC[C@@H]1C[C@@H](O)C[C@H](C)C4=C1[C@@H]3[C@@H]2C4=O (stereo not given in full) |  |  | < 50 | < 50 | 
Cc1cc(=O)cc2c3c1C[C@@H]1[C@H]4CC(C)[C@@](CC2)(C(=O)O4)[C@]31O (stereo not given in full) |  |  |  |  | inhibition (A549 [1]): Active; inhibition (HL-60 [2]): inactive
Cc1cc(=O)cc2c3c1C[C@]1(O)[C@H]4CC(C)[C@@](CC2)(C(=O)O4)[C@]31O (stereo not given in full) | 4.5 | 6.8 |  |  | 
COc1cccc2c1C(=O)c1c(O)c3c(c(O)c1C2=O)C[C@@](O)(C(=O)CO)C[C@@H]3O[C@H]1C[C@H](N)[C@H](O)[C@H](C)O1 [DOXORUBICIN HYDROCHLORIDE] | 0.44 | 0.075 |  |  | 
Cc1cc(=O)cc2c3c1[C@@H](O)[C@H]1[C@@H]3[C@]3(CC2)C(=O)O[C@@H]1CC3C (stereo not given in full) | 10.3 | > 50 |  |  | 
CC1C(O)[C@H]2OC(=O)[C@]13CC[C@@H]1C[C@@H](O)C[C@H](C)C4=C1[C@]3(O)[C@@H]2C4=O (stereo not given in full) |  |  | < 50 | < 50 | 
CC1C[C@H]2OC(=O)[C@]13CC[C@@H]1CC(=O)C[C@H](C)C4=C1[C@@H]3[C@@H]2C4=O (stereo not given in full) |  |  | < 50 | < 50 | 
Cc1cc(=O)cc2c3c1[C@@H]1OC4C(C)[C@@]5(C[C@H]2O)C(=O)O[C@H]4[C@]1(O)[C@@H]35 (stereo not given in full) | 11.5 | 17.2 |  |  | 
Cc1cc(=O)cc2c3c1C[C@@H]1[C@@H]4OC(=O)[C@](C[C@H]2O)(C(C)C4O)[C@H]31 (stereo not given in full) | 25.4 | 38.4 |  |  | 
CC1C(O)[C@H]2OC(=O)[C@]13CC[C@]14C[C@@H](O)[C@H](O1)[C@@](C)(O)C1=C4[C@@H]3[C@@H]2C1 (stereo not given in full) |  |  | < 50 | < 50 | 
Cc1cc(=O)cc2c3c1C[C@H]1[C@@H]3[C@]3(C[C@H]2O)C(=O)O[C@@H]1CC3C (stereo not given in full) | 22 | > 50 |  |  | 
CC1=C[C@@H](O)[C@H](O)[C@@]2(O)CC[C@]34C(=O)O[C@@H]5C(O[C@H]6C1=C2[C@@H]3[C@@H]56)C4C (stereo not given in full) |  |  | < 50 | < 50 | 
Cc1cc(=O)cc2c3c1C[C@@H]1[C@H]4CC(C)[C@@](C=C2)(C(=O)O4)[C@]31O (stereo not given in full) | 5.7 | 10 to 20 |  |  | 
CC1C[C@H]2OC(=O)[C@]13CC[C@@H]1C[C@H](O)C[C@H](C)C4=C1[C@@H]3[C@@H]2C4=O (stereo not given in full) |  |  | < 50 | < 50 | 
Cc1cc(=O)cc2c3c1[C@H](O)[C@H]1[C@@H]3[C@]3(CC2)C(=O)O[C@@H]1CC3C (stereo not given in full) | 2.4 | 3.5 |  |  | 
